Where “and” joins values, the source holds several entries; their conditions need not be identical. Equal values may be shown once.

Assay type in all cases: cell-based, human
The subject of test [1] is NB4 cells. The test is described as follows: Granulocytic differentiation, NBT reduction assay, alone or with ATRA. Particulars: for % of NBT+ cells: three days; for effect on granulocytic differentiation / NBT positive cells, in words: alone or in combination with 20 nM ATRA. Here is the method:
The analysis of functional myeloid differentiation induced by compounds of the invention was accomplished by Nitro-Blu tetrazolium (NBT) reduction assay as described below. Cell suspension (approximately 10^5/mL) were incubated in the presence of 0.25 mg/mL NBT and 500 ng of PMA (Phorbol-12-Myristate 13-acetate) (Sigma) at 37° C. for 30 minutes. Granulocyte or monocyte differentiated cell were capable of reducing NBT to dark formazan precipitate (blu positive cells). NBT positive cells were counted on Burker chamber and expressed as percentage of total cell population.
(§1) • Compounds (II) in racemic form and enantiomers S or R. • Compounds (III) in racemic form and enantiomers S or R. • Compounds (II) with R1 and R2=hydrogen were tested for their capability to synergize with ATRA and for their ability to induce granulocyte differentiation in the human promyelocytic cell line NB4. ATRA at the final concentration of 1 μM is usually employed to induce granulocyte differentiation in NB4 cells.
(§2) NB4 cells were incubated for three days in presence of the compounds listed above, alone or in combination with ATRA. Granulocyte differentiation of leukemic cells was determined by (a) Nitro-Blu tetrazolium (NBT) reduction to dark formazan precipitate (blu positive cells) counting NBT positive cells on Burker chamber and (b) cytofluorimetric analysis of CD11b membrane expression (granulocyte marker, see example 32).

Test [2] deals with NB4 cells. As to the kind of experiment: Granulocytic differentiation, cytofluorimetric analysis of CD11b membrane expression, alone or with ATRA. Particulars: for % of CD11b+ cells: three days. Here is the method:
Identification of markers of myeloid maturation was determined by flow cytometry by labelling cells with PE-conjugated antibody and FITC-conjugated antibody to CD11b (granulocyte marker) and CD14 (monocyte marker) respectively (Becton-Dickinson). Cell suspension aliquots (1×10^5 cells) were washed with cell wash buffer (Becton-Dickinson) and incubated with antibodies for 30 minutes in ice. After the incubation cells, resuspended in 0.3 mL of buffer containing Actinomycin D (Becton-Dickinson) to evaluate cell viability, were submitted to the cytofluorimetric analysis (FACScan, Becton-Dickinson). Cells incubated with appropriately labeled isotype controls were used to gate nonspecific fluorescence signal.
as §1, §2

In a further test the test system is acetylated H4 histone. As to the kind of experiment: Histone deacetylase inhibition: western blot for acetylated histone H4 in cells incubated 6 hours with drug. Particulars: for Acetyl-H4 densitometric value: 6 hours, untreated = 0. The protocol: (§3) The new described compounds were tested for their ability to inhibit the histone deacetylase activity by western blot for the acetylated isoforms of histone H3 and H4 and also to induce growth arrest in cancer cells by activating apoptosis and/or cell differentiation. Initially, biological activities of newly synthesized HDACi were assessed by using the human acute promyelocytic leukemia cell line NB4, as the experimental model. Cells were maintained in RPMI (Bio-Whittaker Europe, Verviers, Belgio) supplemented with 10% of fetal calf serum (FCS, Boehringer Mannheim, Germania) and 2 mM glutamine (Merck, Darmstadt, Germania) at 37° C. in a humidified atmosphere of 5% CO2. Cells were counted in a Burker chamber and cells viability was assessed by the trypan blu exclusion test.
(§4) Cells, obtained as described above, were harvested in sterile plates (Falcon, Becton Dickinson, Franklin Lakes, N.J.) at density of 6×10^5/mL, and incubated for 6 hours with increasing drug concentration of single compounds. Then, the cells were lysated with RIPA buffer (50 mM Tris-HCl pH 7.4, 150 mM NaCl, 1% Nonidet P-40, 1 mM EDTA plus protease inhibitor cocktail (Protease Inhibitor Cocktail Set III, n° cat. 539134, Calbiochem, Merck, Darmstadt, Germany) and sonicated (Labsonic 1510) twice for 15s pulses at 1-2 Watts in ice. Protein concentration of cell extracts was determined according to the bicinchoninic acid colorimetric method (BCA, Pierce, Rockford, USA) by using serum bovine albumin as the standard (BSA, Sigma, Steinheim, Germania). Equal amounts of protein (20-40 μg/20-30 μL/well) were separated on NuPAGE Bis-Tris 12% gel (Novex, Invitrogen, Carlsbad, Calif.) 10% and transferred to nitrocellulose membranes (Pro-Bind, pore diameter=0.45 μm; Amersham Pharmacia). Then membranes, incubated in phosphate buffer saline (PBS) with 6% defatted dry milk as blocking solution to saturate unspecific binding sites, were probed overnight at 4° C. with primary antibodies (1;1000 dilution in PBS) raised against acetylated H4 a H3 histone isoforms (Upstate Technologies, Lake Placid, N.Y., USA). […] The experiment was performed with the compound (II) S form, where R1 and R2 can be independently a methyl group or hydrogen.
On the technique in general: A western blot detects proteins with antibodies after separation by electrophoresis.

In a further test the test system is acetylated H3 histone. The test is described as follows: Histone deacetylase inhibition: western blot for acetylated histone H3 in cells incubated 6 hours with drug. As to conditions: for Acetyl-H3 densitometric value: 6 hours, untreated = 1. Here is the method: as §3, §4

With `CC1=C(/C=C/C(C)=C/C=C/C(C)=C/C(=O)O)C(C)(C)CCC1` [ATRA, all-trans-retinoc acid, reference compound], the “% of NBT+ cells” value in the test on NB4 cells [1] (20 nM ATRA alone) was 12% and 15%; in the test with NB4 cells [1] (1 μM ATRA alone) it was 78% and 80%. In addition, the “% of CD11b+ cells” value in the test with NB4 cells [2] (20 nM ATRA alone) is 13% and 10%; with NB4 cells [2] (1 μM ATRA alone), 80% and 71.3% and 72%.

For `C[C@H]1N=C(c2ccccc2)c2cc(C#CCCCC(=O)NO)ccc2N(C)C1=O` [Compound (II) R form with R1 or R2 = Me, (R)-6-(1,3-dimethyl-2-oxo-5-phenyl-2,3-dihydro-1H-benzo[e][1,4]diazepin-7-yl)-N-hydroxyhex-5-ynamide], the Acetyl-H4 densitometric value in the test with acetylated H4 histone (0.5 μM), in the test with acetylated H4 histone (1 μM) and with acetylated H4 histone (2.5 μM) was 0 arbitrary units throughout. The “H4 histone acetylating activity, in words” value in the test on acetylated H4 histone (summary in description) was “does not show hyperacetylating activity on H4 histones”. The “% of NBT+ cells” value in the test with NB4 cells [1] (1.5 μM compound + 20 nM ATRA) is 13.1%; in the test on NB4 cells [1] (1.5 μM compound alone) it was “≦1%”. In the test with NB4 cells [1], the “effect on granulocytic differentiation / NBT positive cells, in words” value is “no appreciable effect on granulocytic differentiation”. The Acetyl-H3 densitometric value was determined as 2.5 arbitrary units with acetylated H3 histone (0.5 μM), 2.54 arbitrary units in the test on acetylated H3 histone (1 μM) and 3.69 arbitrary units in the test with acetylated H3 histone (2.5 μM). In addition, the “H3 histone acetylating activity, in words” value with acetylated H3 histone (summary in description) is recorded as “good activity toward H3 histone”. The “% of CD11b+ cells” value is reported as 19.8% in the test on NB4 cells [2] (1.5 μM compound + 20 nM ATRA) and 14.2% with NB4 cells [2] (1.5 μM compound alone).

For `C[C@@H]1N=C(c2ccccc2)c2cc(NC(=O)CCCCCCC(=O)NO)ccc2N(C)C1=O` [Compound (III) S form with R1 or R2 = Me, (S)—N-1-(1,3-dimethyl-2-oxo-5-phenyl-2,3-dihydro-1H-benzo[e][1,4]diazepin-7-yl)-N8-hydroxyoctanediamide], the Acetyl-H4 densitometric value in the test on acetylated H4 histone (1 μM) turned out to be 3 arbitrary units; in the test on acetylated H4 histone (2 μM), 4.81 arbitrary units; in the test on acetylated H4 histone (5 μM), 12.59 arbitrary units. The figures for the “% of NBT+ cells” value in the test with NB4 cells [1] (3 μM compound + 20 nM ATRA) and in the test with NB4 cells [1] (3 μM compound alone) were 40% and 3%, respectively. For the same compound, in the test with NB4 cells [1], the “effect on granulocytic differentiation / NBT positive cells, in words” value is “strong synergistic increase of NBT positive cells”. Moreover, the Acetyl-H3 densitometric value was 2.73 arbitrary units in the test on acetylated H3 histone (1 μM), 2.65 arbitrary units in the test with acetylated H3 histone (2 μM) and 3.61 arbitrary units in the test on acetylated H3 histone (5 μM). The “HDAC inhibitory / acetylating activity, in words (histone not specified)” value with acetylated H3 histone (summary in description) was “good inhibitory activity”. Besides, the results for the “% of CD11b+ cells” value with NB4 cells [2] (3 μM compound + 20 nM ATRA) and with NB4 cells [2] (3 μM compound alone) were 7.4% and 26%, respectively. Moreover, the “effect on CD11b positive cells, in words” value in the test with NB4 cells [2] (alone or in combination with 20 nM ATRA) is “no increase in CD11b positive cells”.

(Values after patent publication US8324202B2, “5-phenyl-1H-benzo [E] [1,4] diazepine compounds substituted with an hydroxamic acid group as histone deacetylase inhibitors” (Universita Degli Studi di Firenze, priority 2007, dated 2012).)
